This passage reports IC50 results from patent US6964979B2, “R-enantiomers of pyranoindole derivatives and the use thereof for the treatment of hepatitis C virus infection or disease” (Wyeth, priority 2002, dated 2005).

Molecules are shown by their SMILES.

The target in this assay is T1, HCV RdRp NS5B d21BK (BK strain, 1b subtype) (Hepatitis C virus genotype 1b, UniProt P26663).
T1 construct: NS5B from the BK strain (1b subtype) is expressed in E. coli as a protein in which the 21 C-terminal amino acids are replaced; made in house; host or cells: E. coli
T1 sequence (P26663 2420-2989): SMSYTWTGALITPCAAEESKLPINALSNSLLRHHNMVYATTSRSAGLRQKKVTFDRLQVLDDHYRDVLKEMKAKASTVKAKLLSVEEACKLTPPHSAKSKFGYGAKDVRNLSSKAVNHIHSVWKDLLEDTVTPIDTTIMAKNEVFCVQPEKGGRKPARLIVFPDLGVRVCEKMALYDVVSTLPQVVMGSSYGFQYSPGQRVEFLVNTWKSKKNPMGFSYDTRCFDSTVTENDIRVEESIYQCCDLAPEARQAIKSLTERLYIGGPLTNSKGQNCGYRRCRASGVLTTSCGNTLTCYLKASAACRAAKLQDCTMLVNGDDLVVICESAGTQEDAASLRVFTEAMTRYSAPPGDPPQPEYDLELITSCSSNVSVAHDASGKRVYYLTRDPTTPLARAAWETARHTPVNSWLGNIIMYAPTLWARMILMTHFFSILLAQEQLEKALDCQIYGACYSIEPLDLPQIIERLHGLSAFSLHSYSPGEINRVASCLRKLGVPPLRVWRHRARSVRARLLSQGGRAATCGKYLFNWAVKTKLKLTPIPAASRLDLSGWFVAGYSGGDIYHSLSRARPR
In words: Hepatitis C polymerase (NS5B RdRp) inhibition, 33P-GTP incorporation filter assay. Conditions: NS5B d21BK 24 nM, 2 hours at room temperature; read-out: HCV pol IC50. The assay is classed as biochemical. The text has this:
The ability of the compounds of the present invention to inhibit Hepatitis C Polymerase was established by the following experimental procedure:
NS5B from the BK strain (1b subtype) is expressed in E. coli as a protein in which the 21 C-terminal amino acids are replaced with a short linker and a hexahistidine tag ([…]). The purified protein is mixed with radioactive nucleotides and allowed to replicate a heteropolymeric RNA substrate, primed by an endogenous short hairpin, resulting in an approximately 760 nt product. The radioactive product is captured on a filter and quantitated after removal of the unincorporated nucleotides.
(1) Compounds 10 μl at 10 μg/ml in 15% dimethylsulfoxide (DMSO)
• When starting from 100 μg/ml compound stock in […]: • Dispense 5 μl 30% DMSO per well • Dispense 5 μl compound (100 μg/ml) per well. • When starting from 50 μg/ml compound stock in 15% DMSO: • Add 10 μl compound per well. (2) Enzyme Mix:
Add 20 μl enzyme mix into each well of the assay plate. Incubate compound and enzyme at room temperature for 15 minutes. (3) Template Mix—Prepare Ahead
Spin down a tube of RNA (5 μg/tube stored in 75% ethanol and 0.3 M sodium acetate) in a microcentrifuge for 20 minutes. at 4° C. One tube is enough for 1-1.5 plates. Remove as much ethanol from the tube as possible by inverting the tube. Be gentle, pellet RNA may not adhere to the tube. Vacuum dry the RNA. Resuspend the RNA by adding 1 ml of DEPC water, close the cap of the tube tightly. To dissolve RNA, incubate RNA solution on ice for ˜60 minutes and gently vortex. Spin briefly to ensure all RNA solution is down to the bottom of the tube before opening cap. Gently transfer RNA solution into a 5 ml or larger tube. Add another 3 ml of DEPC water (total 4 ml of volume).
Add the following volumes of reagents
Add 20 μl template mix per reaction (i.e. 20 ng of pOF per reaction or ˜3 nM) (4) Incubate reaction at room temperature (22-25° C.) for 2 hours. (5) Stop reaction by adding 50 μl of 170 mM EDTA. • Final concentration of EDTA is 85 mM. (6) Prewet filters of Millipore multiscreen assay plate by adding 200 μl of 0.5 M sodium phosphate buffer, pH 7.0 into each well. Let stand at room temperature for 2-3 minutes. (7) Place the multiscreen filter plate onto a Millipore Manifold and turn on vacuum to allow buffer to flow through. Turn off vacuum. Transfer 80 μl of the reaction product into each well of the filter plate. Let stand for 2-3 minutes. Turn on vacuum to filter reaction product. (8) Turn off vacuum. Add. 200 μl of 0.5 M sodium phosphate buffer, pH 7.0 into each well to wash filter. […]
Percent inhibition is calculated after background subtraction as a percent reduction of activity relative to the positive control (average value of the plate excluding the negative controls). […]
What is called IC50 is the concentration needed to halve the response being measured. With `CCC[C@]1(CC(=O)O)OCCc2c1[nH]c1c(C)ccc(C#N)c21` [Example 1, [(R)-5-cyano-8-methyl-1-propyl-1,3,4,9-tetrahydropyrano[3,4-b]indol-1-yl]acetic acid], the IC50 is 330 nM.
`CCC[C@]1(CC(=O)O)OCCc2c1[nH]c1c(F)ccc(C#N)c21` [Example 2, [(R)-5-cyano-8-fluoro-1-propyl-1,3,4,9-tetrahydropyrano[3,4-b]indol-1-yl]acetic acid]: the IC50 amounted to 440 nM.
Turning to `CCC[C@]1(CC(=O)O)OCCc2c1[nH]c1c(Cl)ccc(Cl)c21` [Example 3, [(R)-5,8-dichloro-1-propyl-1,3,4,9-tetrahydropyrano[3,4-b]indol-1-yl]acetic acid], the half-maximal inhibitory concentration (IC50) was 60 nM.
For the compound `CCC[C@]1(CC(=O)O)OCCc2c1[nH]c1c(C)cc(F)c(C#N)c21` [Example 4, [(R)-5-cyano-6-fluoro-8-methyl-1-propyl-1,3,4,9-tetrahydropyrano [3,4-b]indol-1-yl]acetic acid], the IC50 came to 80 nM.
